According to patent US11753397B2, “Cereblon binders for the degradation of ikaros” (C4 Therapeutics, Inc., priority 2018, dated 2023):

Test system: NCIH929.1 cells
Test: Cell viability assay (CellTiter-Glo 2.0, ATP quantification)
Type: cell-based
Settings: NCIH929.1 cell viability, CellTiter-Glo 2.0, 96 hr incubation, top concentration 1 μM
Method: Example 59. Cell Viability Assay
RPMI 1640 medium, fetal bovine serum (FBS) and 2-mercaptoethanol were purchased from Gibco (Grand Island, N.Y., USA). CellTiter-Glo® 2.0 Assay was purchased from Promega (Madison, Wis., USA). NCIH929.1 cell line was purchased from ATCC (Manassas, Va., USA). Cell culture flasks and 384-well microplates were acquired from VWR (Radnor, Pa., USA).
NCIH929.1 cell viability was determined based on quantification of ATP using CellTiter-Glo® 2.0 luminescent Assay kit, which signals the presence of metabolically-active cells. Briefly, the test compound was added to 384-well plates at a top concentration of 1 μM with 10 points, half log titration in duplicates. NCIH929.1 cells were seeded into the 384-well plates in RPMI medium containing 10% FBS and 0.05 mM 2-mercaptoethanol at a cell density of 750 cells per well. Cells treated in the absence of the test compound were the negative control and cells treated in the absence of CellTiter-Glo® 2.0 were the positive control. At the same day of compound treatment, CellTiter-Glo® 2.0 was added to a plate with cells treated in the absence of the test compound to establish Cytostatic control value (CT0). Cells treated with the test compound were incubated at 37° C. with 5% CO2 for 96 hr. CellTiter-Glo reagent was then added to the cells and luminescence was acquired on EnVision™ Multilabel Reader (PerkinElmer, Santa Clara, Calif., USA).

SMILES: Cn1cc(C(=O)N2CCC(n3cc(CNc4cccc5c4C(=O)N(C4CCC(=O)NC4=O)C5=O)cn3)CC2)cn1 (stereo not drawn) [Compound 34, 2-(2,6-dioxopiperidin-3-yl)-4-(((1-(1-(1-methyl-1H-pyrazole-4-carbonyl)piperidin-4-yl)-1H-pyrazol-4-yl)methyl)amino)isoindoline-1,3-dione]
- GI50: < 100 nM

SMILES: O=C1CCC(N2C(=O)c3cccc(NCc4cnn(C5CCN(C(=O)C6C7(CC7)C67CC7)CC5)c4)c3C2=O)C(=O)N1 (stereo not drawn) [Compound 98, 2-(2,6-dioxopiperidin-3-yl)-4-(((1-(1-(dispiro[2.0.24.13]heptane-7-carbonyl)piperidin-4-yl)-1H-pyrazol-4-yl)methyl)amino)isoindoline-1,3-dione]
- GI50: < 1 nM

SMILES: O=C1CCC(N2C(=O)c3cccc(NCc4cnn(C5CCN(C(=O)C6CCN(C(=O)C7CCCC7)CC6)CC5)c4)c3C2=O)C(=O)N1 (stereo not drawn) [Compound 107, 4-(((1-(1-(1-(cyclopentanecarbonyl)piperidine-4-carbonyl)piperidin-4-yl)-1H-pyrazol-4-yl)methyl)amino)-2-(2,6-dioxopiperidin-3-yl)isoindoline-1,3-dione]
- GI50: < 100 nM

SMILES: CC(C)Oc1cc(C2CC2)cc(-n2cc(CNc3cccc4c3C(=O)N(C3CCC(=O)NC3=O)C4=O)cn2)c1 (stereo not drawn) [Compound 180, 4-{[1-(3-Cyclopropyl-5-isopropoxy-phenyl)-1H-pyrazol-4-ylmethyl]-amino}-2-(2,6-dioxo-piperidin-3-yl)-isoindole-1,3-dione]
- GI50: < 100 nM

SMILES: CCCCC(=O)N1CCC(n2cc(CNc3cccc4c3C(=O)N(C3CCC(=O)NC3=O)C4=O)cn2)CC1 (stereo not drawn) [Compound 40, 2-(2,6-dioxopiperidin-3-yl)-4-(((1-(1-pentanoylpiperidin-4-yl)-1H-pyrazol-4-yl)methyl)amino)isoindoline-1,3-dione]
- GI50: < 100 nM

SMILES: C[C@H](C(=O)N1CCC(n2cc(CNc3cccc4c3C(=O)N(C3CCC(=O)NC3=O)C4=O)cn2)CC1)c1ccccc1 (stereo partly drawn) [Compound 51, 2-(2,6-dioxopiperidin-3-yl)-4-(((1-(1-((S)-2-phenylpropanoyl)piperidin-4-yl)-1H-pyrazol-4-yl)methyl)amino)isoindoline-1,3-dione]
- GI50: < 100 nM

SMILES: O=C1CCC(N2C(=O)c3cccc(NCc4cnn(C5CCN(C(=O)CCC(F)(F)F)CC5)c4)c3C2=O)C(=O)N1 (stereo not drawn) [Compound 30, 2-(2,6-dioxopiperidin-3-yl)-4-(((1-(1-(4,4,4-trifluorobutanoyl)piperidin-4-yl)-1H-pyrazol-4-yl)methyl)amino)isoindoline-1,3-dione]
- GI50: < 100 nM

SMILES: COc1ccc(-c2cc(C(=O)N3CCC(n4cc(CNc5cccc6c5C(=O)N(C5CCC(=O)NC5=O)C6=O)cn4)CC3)ccn2)cc1 (stereo not drawn) [Compound 103, 2-(2,6-dioxopiperidin-3-yl)-4-(((1-(1-(2-(4-methoxyphenyl)isonicotinoyl)piperidin-4-yl)-1H-pyrazol-4-yl)methyl)amino)isoindoline-1,3-dione]
- GI50: < 100 nM

SMILES: [2H][C@@]1(N2C(=O)c3cccc(NCc4cnn(C5CCN(C(=O)OC(C)(C)C)CC5)c4)c3C2=O)CCC(=O)NC1=O (single isomer, unassigned) [Compound 185]
- GI50: < 100 nM

SMILES: CCc1ccc2c(CC(=O)N3CCC(n4cc(CNc5cccc6c5C(=O)N(C5CCC(=O)NC5=O)C6=O)cn4)CC3)coc2c1 (stereo not drawn) [Compound 114, 2-(2,6-dioxoopiperidin-3-yl)-4-(((1-(1-(2-(6-ethylbenzofuran-3-yl)acetyl)piperidin-4-yl)-1H-pyrazol-4-yl)methyl)amino)isoindoline-1,3-dione]
- GI50: < 100 nM

SMILES: Cc1cccc2c(CC(=O)N3CCC(n4cc(CNc5cccc6c5C(=O)N(C5CCC(=O)NC5=O)C6=O)cn4)CC3)noc12 (stereo not drawn) [Compound 104, 2-(2,6-dioxopiperidin-3-yl)-4-(((1-(1-(2-(7-methylbenzo[d]isoxazol-3-yl)acetyl)piperidin-4-yl)-1H-pyrazol-4-yl)methyl)amino)isoindoline-1,3-dione]
- GI50: < 1 nM

SMILES: CC(C(=O)N1CCC(n2cc(CNc3cccc4c3C(=O)N(C3CCC(=O)NC3=O)C4=O)cn2)CC1)(C(F)(F)F)C(F)(F)F (stereo not drawn) [Compound 56, 2-(2,6-dioxopiperidin-3-yl)-4-(((1-(1-(3,3,3-trifluoro-2-methyl-2-(trifluoromethyl)propanoyl)piperidin-4-yl)-1H-pyrazol-4-yl)methyl)amino)isoindoline-1,3-dione]
- GI50: < 100 nM

SMILES: O=C1CCC(N2C(=O)c3cccc(NCc4cnn(C5CCN(CC6(C(F)(F)F)CC6)CC5)c4)c3C2=O)C(=O)N1 (stereo not drawn) [Compound 137, 2-(2,6-dioxopiperidin-3-yl)-4-(((1-(1-((1-(trifluoromethyl)cyclopropyl)methyl)piperidin-4-yl)-1H-pyrazol-4-yl)methyl)amino)isoindoline-1,3-dione]
- GI50: < 100 nM

SMILES: COCCC(=O)N1CCC(n2cc(CNc3cccc4c3C(=O)N(C3CCC(=O)NC3=O)C4=O)cn2)CC1 (stereo not drawn) [Compound 6, 2-(2,6-dioxopiperidin-3-yl)-4-(((1-(1-(3-methoxypropanyl)piperidin-4-yl)-1H-pyrazol-4-yl)methyl)amino)isoindoline-1,3-dione]
- GI50: < 100 nM

SMILES: O=C1CCC(N2C(=O)c3cccc(NCc4cnn(C5CCN(CC6CCCCC6)CC5)c4)c3C2=O)C(=O)N1 (stereo not drawn) [Compound 127, 4-(((1-(1-(cyclohexylmethyl)piperidin-4-yl)-1H-pyrazol-4-yl)methyl)amino)-2-(2,6-dioxopiperidin-3-yl)isoindoline-1,3-dione]
- GI50: < 100 nM

SMILES: CC(C)(C)OC(=O)N1CC2(CC(n3cc(CNc4cccc5c4C(=O)N(C4CCC(=O)NC4=O)C5=O)cn3)C2)C1 (stereo not drawn) [Compound 167, tert-Butyl 6-(4-(((2-(2,6-dioxopiperidin-3-yl)-1,3-dioxoisoindolin-4-yl)amino)methyl)-1H-pyrazol-1-yl)-2-azaspiro[3.3]heptane-2-carboxylate]
- GI50: < 100 nM

SMILES: CC(C)(C)OC(=O)N1CCC(n2cc(CNc3cccc4c3C(=O)N(C3CCC(=O)NC3=O)C4=O)cn2)CC1(C)C (stereo not drawn) [Compound 169, tert-Butyl 4-(4-(((2-(2,6-dioxopiperidin-3-yl)-1,3-dioxoisoindolin-4-yl)amino)methyl)-1H-pyrazol-1-yl)-2,2-dimethylpiperidine-1-carboxylate]
- GI50: < 1 nM

SMILES: O=C1CCC(N2C(=O)c3cccc(NCc4cnn(C5CCN(C(=O)c6cc(C7CC7)on6)CC5)c4)c3C2=O)C(=O)N1 (stereo not drawn) [Compound 39, 4-(((1-(1-(5-cyclopropylisoxazole-3-carbonyl)piperidin-4-yl)-1H-pyrazol-4-yl)methyl)amino)-2-(2,6-dioxopiperidin-3-yl)isoindoline-1,3-dione]
- GI50: < 100 nM

SMILES: O=C1CCC(N2C(=O)c3cccc(NCc4cnn(C5CCN(C(=O)C6CCCC6)CC5)c4)c3C2=O)C(=O)N1 (stereo not drawn) [Compound 32, 4-(((1-(1-(cyclopentanecarbonyl)piperidin-4-yl)-1H-pyrazol-4-yl)methyl)amino)-2-(2,6-dioxopiperidin-3-yl)isoindoline-1,3-dione]
- GI50: < 100 nM

SMILES: CC(C)n1cc(CNc2cccc3c2C(=O)N(C2CCC(=O)NC2=O)C3=O)cn1 (stereo not drawn) [Compound 152, 2-(2,6-dioxo-3-piperidyl)-4-[(1-isopropylpyrazol-4-yl)methylamino]isoindoline-1,3-dione]
- GI50: < 100 nM

SMILES: CC1(C(=O)N2CCC(n3cc(CNc4cccc5c4C(=O)N(C4CCC(=O)NC4=O)C5=O)cn3)CC2)CCC1 (stereo not drawn) [Compound 33, 2-(2,6-dioxopiperidin-3-yl)-4-(((1-(1-(1-methylcyclobutane-1-carbonyl)piperidin-4-yl)-1H-pyrazol-4-yl)methyl)amino)isoindoline-1,3-dione]
- GI50: < 1 nM
